Legend:
[1] = system: differentiated 3T3-L1 adipocytes; experiment: Glucose transport assay (2-deoxy-D-glucose uptake); type: cell-based; settings: 48 hr; for Fold Stimulation (50 μM) of 2-deoxy-D-glucose uptake, Insulin + Compound: 50 μM compound + 100 nM insulin; for fold induction at 50 µM: Mus musculus, 50 μM compound alone, read-out: Fold Stimulation (50 μM) of 2-deoxy-D-glucose uptake, Compound only
Protocol: 3T3-L1 fibroblasts (American Type Culture Collection) were plated and grown for 2 days postconfluence in Dulbecco's modified Eagle's medium (DMEM; 4,500 mg/L glucose, HyClone) supplemented 10% FBS, 10 μg/mL penicillin and streptomycin in an atmosphere of 5% CO2 at 37° C. Adipocyte differentiation was then induced using standard protocol. After 48 hr, the differentiation medium was replaced with maintenance medium containing DMEM supplemented with 10% FBS. The maintenance medium was changed every 3 days until the cells were utilized for experimentation. Glucose transport activity was measured in the presence or absence of insulin and the protocol was modified from Kletzien, R F et al. (1992) Molecular Pharmacology 41:393-398. Briefly, differentiated 3T3-L1 adipocytes were incubated with vehicle (DMSO), insulin (100 nM) alone, test compound (50 μM) alone and a combination of insulin (100 nM)+test compound (50 μM) for 48 hr. Medium was changed twice a day in the presence of compound. Glucose uptake was measured using 2-Deoxy-D-[1−^3H] glucose as label after 90 min incubation with each compound. […] In the series of compounds, one of the best result was obtained with 7-[2-(5-methyl-2-phenyl-4-oxazolyl)-ethoxy]-chroman-3-carboxylic acid (Example 1).

high fat (HF) rats = experiment: Oral Glucose Tolerance Test (OGTT) in high fat (HF) rats; type: in vivo, Sprague-Dawley rats; settings: 30 mg/kg/d for 9 days
Protocol: (§1) An Oral Glucose Tolerance Test (OGTT) was performed both in db/db mice and in high fat (HF) rats after dosing 30 mg/kg/d of compounds of Examples 1 and 2 for 9 days. For OGTT and ITT studies, Sprague-Dawley rats were prepared by feeding high fat (HF) diet (60% calorie from fat) for 6 weeks. Before the study, they were matched into groups on the basis of blood glucose levels.

db/db mice [2] = experiment: Oral Glucose Tolerance Test (OGTT) in db/db mice; type: in vivo; settings: 30 mg/kg/d for 9 days
Protocol: (§2) Mice used in this study were standard model of type II diabetes developed by Jackson Laboratories (Bar Harbor, Me.). Male, 8-week-old db/db mice were housed six per cage in hanging wire bottom cages with standard laboratory conditions. The mice had free access to normal chow (Purina Rodent Chow) and water. At the age of 11-12 weeks, mice were bled in the tail for glucose matching among the groups (n=6 per group). The grouped mice were then dosed orally with vehicle (CMC) or with compounds of formula I (30 mg/kg/d) for 7 days. Compound of formula I at 30 mg/kg/d was dosed as suspension in 0.5% CMC+0.2% Tween 80 in H2O. Fresh suspension was prepared for 8 days dosing and kept in a refrigerator. The suspension was administered by oral gavage daily in the morning. The control group received vehicle (dose 10 mL/kg). Blood glucose concentrations were monitored at basal and 3 hr post dose on day 4 and 8. For blood sampling, mice were placed in a restrainer and drop of blood was obtained by nick in the tip of the tail. Blood glucose concentrations were determined either by putting a drop of blood on a glucose strip for analysis by a glucometer or using a 10 μL plasma sample in a YSI (Yellow Spring Instruments, OH) analyzer. Results are expressed as absolute blood glucose concentrations (mg/dL) and % reduction that is achieved reduction relative to vehicle treated control group. Animals having more than 300 mg/dL of blood glucose were used for testing. Statistical significance (p<0.05) is given versus the appropriate sample in vehicle treated animals. On day 7, the mice were fasted overnight for 18 hrs and were bled in the tail for the glucose level checking then dosed with the testing compounds (30 mg/kg/d). After 2 hr, blood samples were taken and the rats were dosed with 10% glucose in water (10 ml/kg) orally and blood glucose was monitored at 15, 30, 60, 90 and 120 min after dosing. The blood samples were centrifuged and plasma samples were collected and analyzed for insulin, Tg and FFA. An Oral Glucose Tolerance Test (OGTT) was performed both in db/db mice and in high fat (HF) rats after dosing 30 mg/kg/d of compounds of Examples 1 and 2 for 9 days. For OGTT and ITT studies, Sprague-Dawley rats were prepared by feeding high fat (HF) diet (60% calorie from fat) for 6 weeks. Before the study, they were matched into groups on the basis of blood glucose levels.

HF rat = experiment: Insulin tolerance test (ITT) in HF rat; type: in vivo, Sprague-Dawley rats; settings: 30 mg/kg oral, insulin 0.25 U/kg i.p. 2 hr later
Protocol: as §1, with “levels. Insulin tolerance test (ITT) was performed in HF rat which were prepared in the same manner with OGTT test animal. On the day of the study, rats were orally dosed with the testing compounds (30 mg/kg) and 2 hr later, rats were dosed with insulin (0.25 U/kg, i.p.) in 0.1% BSA solution in saline. Blood glucose of the rat was measured at 15, 30, 60, 120 min after dose.” for “levels.”

db/db mice [3] = experiment: Efficacy test for blood glucose lowering (db/db mice); type: in vivo; settings: 30 mg/kg/d oral
Protocol: as §2, with “FFA.” for “FFA. An Oral Glucose Tolerance Test (OGTT) was performed both in db/db mice and in high fat (HF) rats after dosing 30 mg/kg/d of compounds of Examples 1 and 2 for 9 days. For OGTT and ITT studies, Sprague-Dawley rats were prepared by feeding high fat (HF) diet (60% calorie from fat) for 6 weeks. Before the study, they were matched into groups on the basis of blood glucose levels.”

STZ rat = experiment: Blood glucose lowering effect in STZ rat; type: in vivo; settings: STZ rat (data not shown)
[4] = Solubility in dosing vehicle; type: physicochemical
Excerpt: It appeared that compounds of Examples 1 and 2 were not soluble in 0.5% CMC vehicle.

Row | SMILES | Fold Stimulation (50 μM) of 2-deoxy-D-glucose uptake, Insulin + Compound [1] [fold] | fold induction at 50 µM [1] | other results
1 | Cc1oc(-c2ccccc2)nc1CCOc1ccc2c(c1)OCC(CC(=O)O)C2 (stereo not shown) [Example 14, {7-[2-(5-Methyl-2-phenyl-oxazol-4-yl)-ethoxy]-chroman-3-yl}-acetic acid] | 6.9 | 1.4 | –
2 | CCc1ccc(CCOc2ccc(CC3SC(=O)NC3=O)cc2)nc1 (stereo not shown) [Pioglitazone, reference compound] | 7.6 | 1.9 | –
3 | Cc1oc(-c2ccccc2)nc1CCOc1ccc2c(c1)OCC(C(=O)NS(=O)(=O)c1ccccc1)C2 (stereo not shown) [Example 8] | 8.8 | 1.5 | –
4 | Cc1oc(-c2ccccc2)nc1COc1ccc2c(c1)OCC(C(=O)O)C2 (stereo not shown) [Example 6, 7-[(2-phenyl-5-methyl-1,3-oxazol-4-yl)methoxy]chromane-3-carboxylic acid] | 10.7 | 1.4 | –
5 | O=C(O)C1COc2cc(OCCc3nc(-c4ccccc4)oc3-c3ccccc3)ccc2C1 (stereo not shown) [Example 5] | 8.1 | 1.7 | –
6 | Cc1oc(-c2ccc(-c3ccccc3)cc2)nc1COc1ccc2c(c1)OCC(C(=O)O)C2 (stereo not shown) [Example 11] | 4.6 | 1.3 | –
7 | COC(=O)C1COc2cc(OCCc3nc(-c4ccccc4)oc3C)ccc2C1 (stereo not shown) [Example 12, Methyl 7-[2-(5-Methyl-2-phenyl-4-oxazolyl)ethoxy]chromane-3-carboxylate] | 6.0 | 1.1 | –
8 | Cc1oc(-c2cccs2)nc1CCOc1ccc2c(c1)OCC(C(=O)O)C2 (stereo not shown) [Example 4, 7-[2-(5-methyl-2-thien-2-yl-1,3-oxazol-4-yl)ethoxy]chromane-3-carboxylic acid] | 7.6 | 1.5 | –
9 | Cc1oc(-c2ccc(Br)cc2)nc1COc1ccc2c(c1)OCC(C(=O)O)C2 (stereo not shown) [Example 10, 7-[(2-(4-bromophenyl)-5-methyl-1,3-oxazol-4-yl)methoxy]chromane-3-carboxylic acid] | 5.1 | 1 | –
10 | Cc1oc(-c2ccccc2)nc1CCCOc1ccc2c(c1)OCC(C(=O)O)C2 (stereo not shown) [Example 7, 7-[3-(5-Methyl-2-phenyl-4-oxazolyl)propoxy]chromane-3-carboxylic acid] | 6.5 | 1.4 | –
11 | Cc1oc(-c2ccccc2)nc1CCOc1ccc2c(c1)OCC(C(=O)NS(C)(=O)=O)C2 (stereo not shown) [Example 9] | 6.2 | 1.2 | –
12 | Cc1oc(-c2ccccc2)nc1CCOc1ccc2c(c1)OCC(C(N)=O)C2 (stereo not shown) [Example 13, 7-[2-(5-Methyl-2-phenyl-4-oxazolyl)ethoxy]chromane-3-carboxylic acid amide] | 8.8 | 1.7 | –
13 | Cc1oc(-c2ccc(-c3ccccc3)cc2)nc1CCOc1ccc2c(c1)OCC(C(=O)O)C2 (stereo not shown) [Example 2, 7-[2-(5-Methyl-2-(4-phenyl)phenyl-4-oxazolyl)ethoxy]chromane-3-carboxylic acid] | 6.4 | 1.5 | AUC of Glucose in high fat rat, % reduction (high fat (HF) rats): 10.1%; AUC of Glucose in high fat rat, Observed value (high fat (HF) rats; control 14053): 12631 mg/dl × 120 min; AUC of Glucose in db/db, % reduction (db/db mice [2]): 14.0%; AUC of Glucose in db/db, Observed value (db/db mice [2]; control 40858): 32406 mg/dl × 120 min; AUC of Glucose in high fat rat, % reduction (HF rat): 4.2%; AUC of Glucose in high fat rat, Observed value (HF rat; control 13359): 12796 mg/dl × 120 min; Fatty acid % reduction (db/db mice [3]; plasma): −21.1%; Insulin % reduction (db/db mice [3]; plasma): −72.7%; Glucose Max % efficacy (db/db mice [3]; suspension in 0.5% CMC + 0.2% Tween 80): 70.3%; Glucose Observed value (db/db mice [3]; suspension in 0.5% CMC + 0.2% Tween 80, control 261.2): 148.3 mg/dL; blood glucose lowering effect (STZ rat): did not reduce blood glucose; solubility in 0.5% CMC vehicle [4]: not soluble
14 | Cc1oc(-c2ccc(F)cc2)nc1CCOc1ccc2c(c1)OCC(C(=O)O)C2 (stereo not shown) [Example 3] | 5.9 | 1.3 | –

From US7446127B2, “Chroman carboxylic acid derivatives for the treatment of diabetes and lipid disorders” (SK Holdings Co, Ltd., priority 2003, dated 2008)
